According to the supplement of paper PMC10307832:

How the values were obtained:
Assay in all cases: relative viability (nuclei count vs DMSO), 5 days (fraction); higher = more cells survive
[1] = compound: CC1=C(CC(=O)O)c2cc(F)ccc2/C1=C\c1ccc([S+](C)[O-])cc1 [Sulindac] + Cc1cc(Nc2cc(N3CCN(C)CC3)nc(Sc3ccc(NC(=O)C4CC4)cc3)n2)n[nH]1 [Tozasertib] (partner 0.1 µM)
How it was run: (§1)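 Relative viability divides the nuclei count in treated wells by that in vehicle wells. Lung cancer cell lines were seeded in 1536-well plates, dosed by pin tool the next day, and fixed and stained after 5 days in one step with final 0.05% Triton X-100, 1% formaldehyde and 1 ug/ml Hoechst. Dosing was a single drug or a fixed anchor-drug dose plus five library-drug doses (not always all listed) in √10 steps, and values are medians of duplicate plates imaged at 4×.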

[2] = compound: O=c1[nH]cc(F)c(=O)[nH]1 [5-Fluorouracil] + CC(C)C[C@H](NC(=O)[C@H](Cc1ccccc1)NC(=O)c1cnccn1)B(O)O [Bortezomib] (partner 0.002 µM)
How it was run: as §1

[3] = compound: O=c1[nH]cc(F)c(=O)[nH]1 [5-Fluorouracil] + CS(=O)(=O)N1CCN(Cc2cc3nc(-c4cccc5[nH]ncc45)nc(N4CCOCC4)c3s2)CC1 [Pictilisib] (partner 1 µM)
How it was run: as §1

[4] = compound: O=c1[nH]cc(F)c(=O)[nH]1 [5-Fluorouracil] + O=C(c1cc(Cc2n[nH]c(=O)c3ccccc23)ccc1F)N1CCN(C(=O)C2CC2)CC1 [Olaparib] (partner 8 µM)
How it was run: as §1

Row | Cell Line | relative viability ([1]; first compound 0.08 µM) | relative viability ([1]; first compound 0.253 µM) | relative viability ([1]; first compound 2.53 µM) | relative viability ([1]; first compound 8 µM) | relative viability ([2]; first compound 0.02 µM) | relative viability ([2]; first compound 0.2 µM) | relative viability ([2]; first compound 0.6325 µM) | relative viability ([2]; first compound 2 µM) | relative viability ([3]; first compound 0.02 µM) | relative viability ([3]; first compound 0.2 µM) | relative viability ([3]; first compound 0.6325 µM) | relative viability ([3]; first compound 2 µM) | relative viability ([4]; first compound 0.02 µM) | relative viability ([4]; first compound 0.2 µM) | relative viability ([4]; first compound 0.6325 µM) | relative viability ([4]; first compound 2 µM) | relative viability ([1]; first compound 0.8 µM)
1 | NCI-H1650 | 0.456 | 0.381 | 0.287 | 0.426 | 0.195 | 0.187 | 0.185 | 0.174 | 0.587 | 0.537 | 0.428 | 0.306 | 0.797 | 0.754 | 0.381 | 0.229 | 
2 | NCI-H1355 | 0.544 | 0.607 | 0.502 | 0.57 | 1.17 | 1.1 | 0.404 | 0.3 | 0.482 | 0.493 | 0.361 | 0.33 | 0.716 | 0.485 | 0.253 | 0.225 | 
3 | NCI-H1975 | 0.888 | 0.825 | 0.722 | 1.15 | 0.472 | 0.3 | 0.214 | 0.17 | 0.309 | 0.308 | 0.262 | 0.217 | 0.805 | 0.736 | 0.356 | 0.21 | 0.927
4 | BEN | 0.46 | 0.449 | 0.462 | 0.566 | 0.779 | 0.869 | 0.655 | 0.655 | 0.557 | 0.597 | 0.536 | 0.555 | 1.01 | 0.851 | 0.907 | 0.913 | 0.519
5 | NCI-H322M | 0.483 | 0.485 | 0.51 | 0.499 | 1.44 | 1.17 | 1.03 | 0.652 | 0.564 | 0.536 | 0.529 | 0.427 | 0.838 | 0.764 | 0.618 | 0.531 | 0.47
